Measurements: patent US8637523B2, “Compounds for the reduction of beta-amyloid production” (Bristol-Myers Squibb Company, priority 2010, dated 2014)
Where two headings read alike, the source gives them in different places.

Tested on: Aβ42
Assay: Cellular assay for inhibition of Aβ1-42 production (H4 APP751 SWE clone 8.20)
Type: cell-based
Details: H4 APP751 SWE clone 8.20 cells, 19 h incubation
Procedure, shortened: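 Compound-treated cells were incubated 19 h at 37 °C in 5% CO2. Aβ42 in the cell plate was detected overnight at 4 °C with an Aβ42 neoepitope antibody (565, Wallac-labelled, 0.8 ng/well) plus N-terminal antibody 26D6 (APC, 75 ng/well) in 40 mM Tris-HCl pH 7.4, 0.2% BSA. IC50s came from curve fitting.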

[1] = read-out: Activity Rating (Aβ42 cellular IC50), class symbol
[2] = 19 h, read-out: Activity Rating (Aβ42 cellular IC50), class symbol
[3] = 19 h, unit inferred, read-out: Activity Rating (Aβ42 cellular IC50), numeric value
[4] = unit inferred, read-out: Activity Rating (Aβ42 cellular IC50), numeric value

Row | Compound | IC50 [1] | other results
1 | Fc1ccc(C2CCc3c4nc(nc32)Nc2ccc(-n3cnc(Cl)c3)c(c2)OCC=CCN4)c(F)c1 (centres unmarked) [Example 14B, (11Z)-7-(4-chloro-1H-imidazol-1-yl)-18-(2,4-difluorophenyl)-10,13,14,16,17,18-hexahydro-15,2-(azeno)-8,4-(metheno)cyclopenta[h][1,6,10,12]oxatriazacycloheptadecine] | 0.01 to 0.1 µM | –
2 | N#Cc1ccc2cc1OCC(O)CCNc1nc(nc3c1CCC3c1ccc(F)cc1)N2 (single isomer, unassigned) [Example 73A, 7-cyano-18-(4-fluorophenyl)-10,11,12,13,14,16,17,18-octahydro-15,2-(azeno)-8,4-(metheno)cyclopenta[h][1,6,10,12]oxatriazacycloheptadecin-11(3H)-ol] | – | IC50 [2]: 0.01 to 0.1 µM
3 | CN1CCCOc2cc(ccc2C#N)Nc2nc3c(c1n2)CCC3c1ccccc1 (stereo not drawn) [Example 31A, 7-cyano-β-methyl-17-phenyl-11,12,13,15,16,17-hexahydro-10H-14,2-(azeno)-8,4-(metheno)cyclopenta[g][1,5,9,11]oxatriazacyclohexadecine] | – | IC50 [2]: 0.01 to 0.1 µM
4 | Clc1cn(-c2ccc3cc2OCCOCCNc2nc(nc4c2CCC4c2ccccc2)N3)cn1 (centres unmarked) [Example 8A, 7-(4-chloro-1H-imidazol-1-yl)-19-phenyl-10,11,13,14,15,17,18,19-octahydro-16,2-(azeno)-8,4-(metheno)cyclopenta[i][1,4,7,11,13]dioxatriazacyclooctadecine] | – | IC50 [2]: < 0.01 µM
5 | Cc1ncn(-c2ccc3cc2OCCCCNc2nc(nc4c2CN(C)CC4c2ccc(F)cc2)N3)n1 (racemic) [Example 70A, 19-(4-fluorophenyl)-17-methyl-7-(3-methyl-1H-1,2,4-triazol-1-yl)-11,12,13,14,16,17,18,19-octahydro-10H-15,2-(azeno)-8,4-(metheno)pyrido[3,4-h][1,6,10,12]oxatriazacycloheptadecine] | 0.01 to 0.1 µM | –
6 | Cc1ncn(-c2ccc3cc2OCCCCN(C)c2nc(nc4c2CCC4c2ccc(F)cc2F)N3)n1 (centres unmarked) [Example 61A, 18-(2,4-difluorophenyl)-14-methyl-7-(3-methyl-1H-1,2,4-triazol-1-yl)-10,11,12,13,14,16,17,18-octahydro-15,2-(azeno)-8,4-(metheno)cyclopenta[h][1,6,10,12]oxatriazacycloheptadecine] | – | IC50 [3]: 0.0041 µM
7 | CN1CC=CCOc2cc(ccc2-n2cnc(Cl)c2)Nc2nc3c(c1n2)CCC3c1ccccc1 (centres unmarked) [Example 3B, (11Z)-7-(4-chloro-1H-imidazol-1-yl)-14-methyl-18-phenyl-10,13,14,16,17,18-hexahydro-15,2-(azeno)-8,4-(metheno)cyclopenta[h][1,6,10,12]oxatriazacycloheptadecine] | 0.01 to 0.1 µM | –
8 | (11Z)-18-(2,4-difluorophenyl)-7-(5-methyl-1H-1,2,4-triazol-1-yl)-10,13,14,16,17,18-hexahydro-15,2-(azeno)-8,4-(metheno)cyclopenta[h][1,6,10,12]oxatriazacycloheptadecine [Example 53A] | < 0.01 µM | –
9 | (11E)-7-(3-methyl-1H-1,2,4-triazol-1-yl)-18-phenyl-10,13,14,16,17,18-hexahydro-15,2-(azeno)-8,4-(metheno)cyclopenta[h][1,6,10,12]oxatriazacycloheptadecine [Example 40A] | < 0.01 µM | –
10 | Clc1cn(-c2ccc3cc2OCCCCCNc2nc(nc4c2CCC4c2ccccc2)N3)cn1 (centres unmarked) [Example 11B, 7-(4-chloro-1H-imidazol-1-yl)-19-phenyl-3,10,11,12,13,14,15,17,18,19-decahydro-2,16-(azeno)-8,4-(metheno)cyclopenta[f][1,7,9,13]oxatriazacyclooctadecine] | – | IC50 [2]: 0.01 to 0.1 µM
11 | N#Cc1ccc2cc1OCC=CCNc1nc(nc3c1CCC3c1ccc(F)cc1F)N2 (centres unmarked) [Example 24B, (11Z)-7-cyano-18-(2,4-difluorophenyl)-10,13,14,16,17,18-hexahydro-15,2-(azeno)-8,4-(metheno)cyclopenta[h][1,6,10,12]oxatriazacycloheptadecine] | – | IC50 [4]: 0.043 µM
12 | Fc1ccc(C2CCc3c4nc(nc32)Nc2ccc(-n3cnc(Cl)c3)c(c2)OCC=CCN4)c(F)c1 (centres unmarked) [Example 15A, (11E)-7-(4-chloro-1H-imidazol-1-yl)-18-(2,4-difluorophenyl)-10,13,14,16,17,18-hexahydro-15,2-(azeno)-8,4-(metheno)cyclopenta[h][1,6,10,12]oxatriazacycloheptadecine] | < 0.01 µM | –
13 | CN1Cc2c(nc3nc2N(C)C/C=C\COc2cc(ccc2C#N)N3)C(c2ccc(F)cc2)C1 (racemic) [Example 74, (11Z)-14,17-dimethyl-7-cyano-19-(4-fluorophenyl)-13,14,16,17,18,19-hexahydro-10H-15,2-(azeno)-8,4-(metheno)pyrido[3,4-h][1,6,10,12]oxatriazacycloheptadecine] | – | IC50 [2]: 0.01 to 0.1 µM
14 | Clc1cn(-c2ccc3cc2OC/C=C\CCc2nc(nc4c2CCC4c2ccccc2)N3)cn1 (single isomer, unassigned) [Example 16A, (11Z)-7-(4-chloro-1H-imidazol-1-yl)-18-phenyl-10,13,14,16,17,18-hexahydro-15,2-(azeno)-8,4-(metheno)cyclopenta[h][1,10,12]oxadiazacycloheptadecine] | < 0.01 µM | –
15 | Cc1ncn(-c2ccc3cc2OCC=CCCc2nc(nc4c2CCC4c2ccccc2)N3)n1 (centres unmarked) [Example 59B, (11E)-7-(3-methyl-1H-1,2,4-triazol-1-yl)-18-phenyl-10,13,14,16,17,18-hexahydro-15,2-(azeno)-8,4-(metheno)cyclopenta[h][1,10,12]oxadiazacycloheptadecine] | – | IC50 [4]: 0.032 µM
16 | CN1CC=CCOc2cc(ccc2-n2cnc(Cl)c2)Nc2nc3c(c1n2)CCC3c1ccccc1 (centres unmarked) [Example 4A, (11E)-7-(4-chloro-1H-imidazol-1-yl)-14-methyl-18-phenyl-10,13,14,16,17,18-hexahydro-15,2-(azeno)-8,4-(metheno)cyclopenta[h][1,6,10,12]oxatriazacycloheptadecine] | < 0.01 µM | –
17 | Cc1ncn(-c2ccc3cc2OCCCCCc2nc(nc4c2CCC4c2ccccc2)N3)n1 (centres unmarked) [Example 62B, 7-(3-methyl-1H-1,2,4-triazol-1-yl)-18-phenyl-10,11,12,13,14,16,17,18-octahydro-15,2-(azeno)-8,4-(metheno)cyclopenta[h][1,10,12]oxadiazacycloheptadecine] | – | IC50 [3]: 0.022 µM
18 | Cc1ncn(-c2ccc3cc2OCC=CCNc2nc(nc4c2CCC4c2ccc(F)cc2)N3)n1 (centres unmarked) [Example 46B, (11E)-18-(4-fluorophenyl)-7-(3-methyl-1H-1,2,4-triazol-1-yl)-10,13,14,16,17,18-hexahydro-15,2-(azeno)-8,4-(metheno)cyclopenta[h][1,6,10,12]oxatriazacycloheptadecine] | 0.1 to 1 µM | –
19 | Cc1ncn(-c2ccc3cc2OCCCCNc2nc(nc4c2CN(C)CC4c2ccc(F)cc2)N3)n1 (racemic) [Example 70B, 19-(4-fluorophenyl)-17-methyl-7-(3-methyl-1H-1,2,4-triazol-1-yl)-11,12,13,14,16,17,18,19-octahydro-10H-15,2-(azeno)-8,4-(metheno)pyrido[3,4-h][1,6,10,12]oxatriazacycloheptadecine] | – | IC50 [2]: < 0.01 µM
20 | Cc1ncn(-c2ccc3cc2OCCCCNc2nc(nc4c2CCC4c2ccccc2)N3)n1 (centres unmarked) [Example 49A, 7-(3-methyl-1H-1,2,4-triazol-1-yl)-18-phenyl-10,11,12,13,14,16,17,18-octahydro-15,2-(azeno)-8,4-(metheno)cyclopenta[h][1,6,10,12]oxatriazacycloheptadecine] | < 0.01 µM | –
21 | N#Cc1ccc2cc1OCC(O)CCNc1nc(nc3c1CCC3c1ccc(F)cc1)N2 (single isomer, unassigned) [Example 73C, 7-cyano-18-(4-fluorophenyl)-10,11,12,13,14,16,17,18-octahydro-15,2-(azeno)-8,4-(metheno)cyclopenta[h][1,6,10,12]oxatriazacycloheptadecin-11(3H)-ol] | 0.01 to 0.1 µM | –
22 | Cc1ncn(-c2ccc3cc2OC/C=C\CNc2nc(nc4c2CCC4c2ccc(F)cc2)N3)n1 (centres unmarked) [Example 45B, (11Z)-18-(4-fluorophenyl)-7-(3-methyl-1H-1,2,4-triazol-1-yl)-10,13,14,16,17,18-hexahydro-15,2-(azeno)-8,4-(metheno)cyclopenta[h][1,6,10,12]oxatriazacycloheptadecine] | 0.01 to 0.1 µM | –
23 | CN1CC=CCOc2cc(ccc2-n2cnc(Cl)c2)Nc2nc3c(c1n2)CCC3c1ccccc1 (centres unmarked) [Example 3A, (11Z)-7-(4-chloro-1H-imidazol-1-yl)-14-methyl-18-phenyl-10,13,14,16,17,18-hexahydro-15,2-(azeno)-8,4-(metheno)cyclopenta[h][1,6,10,12]oxatriazacycloheptadecine] | < 0.01 µM | –
24 | Cc1ncn(-c2ccc3cc2OCC=CCNc2nc(nc4c2CCC4c2ccccc2)N3)n1 (centres unmarked) [Example 39A, (11Z)-7-(3-methyl-1H-1,2,4-triazol-1-yl)-18-phenyl-10,13,14,16,17,18-hexahydro-15,2-(azeno)-8,4-(metheno)cyclopenta[h][1,6,10,12]oxatriazacycloheptadecine] | – | IC50 [4]: 0.004 µM
25 | Cc1ncn(-c2ccc3cc2OCCN(C)CCNc2nc(nc4c2CCC4c2ccc(F)cc2)N3)n1 (centres unmarked) [Example 56B, 19-(4-fluorophenyl)-12-methyl-7-(3-methyl-1H-1,2,4-triazol-1-yl)-11,12,13,14,15,17,18,19-octahydro-10H-16,2-(azeno)-8,4-(metheno)cyclopenta[i][1,4,7,11,13]oxatetraazacyclooctadecine] | – | IC50 [2]: 0.01 to 0.1 µM
26 | Clc1cn(-c2ccc3cc2OCCCNc2nc(nc4c2CCC4c2ccccc2)N3)cn1 (centres unmarked) [Example 9B, 7-(4-chloro-1H-imidazol-1-yl)-17-phenyl-11,12,13,15,16,17-hexahydro-10H-14,2-(azeno)-8,4-(metheno)cyclopenta[g][1,5,9,11]oxatriazacyclohexadecine] | – | IC50 [3]: 0.017 µM
